In patent US7109193B2, “Tricyclic diazepines tocolytic oxytocin receptor antagonists” (Wyeth, priority 2001, dated 2006):
Structures can show the parent of a compound that is named as a salt.

Molecular target: T1, human vasopressin V1a receptor subtype (Homo sapiens, UniProt P37288)
T1 construct: host or cells: CHO cells (pZeoSV vector for the Thibonnier line)
Test: Vasopressin binding in Chinese Hamster Ovary cell membranes expressing human vasopressin V1a subtype receptors
Settings: 100 nM, CHO cell membranes, [3H]Manning ligand, values without parentheses
Summary of the method: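 Displacement of [3H]Manning ligand (8 nM working solution) from human V1a receptors in CHO cell membranes, 25–50 μg protein per well. Incubation ran 60 min at room temperature in 50 mM Tris-HCl pH 7.4 with protease inhibitors, followed by filtration and scintillation counting. Results are given as IC50 or percent inhibition.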

T1 sequence (P37288 whole entry): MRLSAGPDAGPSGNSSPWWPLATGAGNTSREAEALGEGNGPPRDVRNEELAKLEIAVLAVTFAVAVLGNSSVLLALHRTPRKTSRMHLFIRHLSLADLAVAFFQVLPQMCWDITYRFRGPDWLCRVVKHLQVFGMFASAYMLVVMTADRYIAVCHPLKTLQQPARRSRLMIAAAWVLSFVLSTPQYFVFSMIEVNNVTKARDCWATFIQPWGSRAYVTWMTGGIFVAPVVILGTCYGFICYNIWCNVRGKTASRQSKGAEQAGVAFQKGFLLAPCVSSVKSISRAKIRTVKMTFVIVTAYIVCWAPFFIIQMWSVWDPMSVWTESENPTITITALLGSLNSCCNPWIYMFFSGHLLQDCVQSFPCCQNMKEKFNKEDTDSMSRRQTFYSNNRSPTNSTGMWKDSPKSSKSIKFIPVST

SMILES	inhibition at 0.1 µM [%]
COc1cccc(-c2cc(OC)c(C(=O)N3Cc4ccc(C(=O)NCCCN(C)C)n4Cc4ccccc43)cc2Cl)c1 [Example 79, 10-[(6-Chloro-3,3′-dimethoxy[1,1′-biphenyl]-4-yl)carbonyl]-N-[3-(dimethylamino)propyl]-10,11-dihydro-5H-pyrrolo[2,1-c][1,4]benzodiazepine-3-carboxamide]	0
COc1cc(C(=O)N2Cc3ccc(C(=O)NCCCN(C)C)n3Cc3ccccc32)ccc1-c1cccc2ccccc12 [Example 80, N-[3-(Dimethylamino)propyl]-10-[3-methoxy-4-(1-naphthyl)benzoyl]-10,11-dihydro-5H-pyrrolo[2,1-c][1,4]benzodiazepine-3-carboxamide]	16
COc1ccccc1-c1ccc(C(=O)N2Cc3ccc(C(=O)NCCCN(C)C)n3Cc3ccccc32)cc1OC [Example 81, 10-[(2,2′-Dimethoxy[1,1′-biphenyl]-4-yl)carbonyl]-N-[3-(dimethylamino)propyl]-10,11-dihydro-5H-pyrrolo[2,1-c][1,4]benzodiazepine-3-carboxamide]	4
COc1cccc(-c2ccc(C(=O)N3Cc4ccc(C(=O)NCCCN(C)C)n4Cc4ccccc43)cc2OC)c1 [Example 82, 10-[(2,3′-Dimethoxy[1,1′-biphenyl]-4-yl)carbonyl]-N-[3-(dimethylamino)propyl]-10,11-dihydro-5H-pyrrolo[2,1-c][1,4]benzodiazepine-3-carboxamide]	37
CN(C)CCCNC(=O)c1ccc2n1Cc1ccccc1N(C(=O)c1ccc(-c3cccc4ccccc34)cc1Cl)C2 [Example 83, 10-[2-Chloro-4-(1-naphthyl)benzoyl]-N-[3-(dimethylamino)propyl]-10,11-dihydro-5H-pyrrolo[2,1-c][1,4]benzodiazepine-3-carboxamide]	8
COc1ccccc1-c1ccc(C(=O)N2Cc3ccc(C(=O)N(C)CCN(C)C)n3Cc3ccccc32)cc1C [Example 88, N-[2-(Dimethylamino)ethyl]-10-[(2′-methoxy-2-methyl[1,1′-biphenyl]-4-yl)carbonyl]-N-methyl-10,11-dihydro-5H-pyrrolo[2,1-c][1,4]benzodiazepine-3-carboxamide]	44
COc1cccc(-c2ccc(C(=O)N3Cc4ccc(C(=O)N(C)CCN(C)C)n4Cc4ccccc43)cc2C)c1 [Example 89, N-[2-(Dimethylamino)ethyl]-10-[(3′-methoxy-2-methyl[1,1′-biphenyl]-4-yl)carbonyl]-N-methyl-10,11-dihydro-5H-pyrrolo[2,1-c][1,4]benzodiazepine-3-carboxamide]	50
COc1ccccc1-c1ccc(C(=O)N2Cc3ccc(C(=O)N(C)CCN(C)C)n3Cc3ccccc32)cc1 [Example 90, N-[2-(Dimethylamino)ethyl]-10-[(2′-methoxy[1,1′-biphenyl]-4-yl)carbonyl]-N-methyl-10,11-dihydro-5H-pyrrolo[2,1-c][1,4]benzodiazepine-3-carboxamide]	63
Cc1ccccc1-c1ccc(C(=O)N2Cc3ccc(C(=O)N(C)CCN(C)C)n3Cc3ccccc32)cc1 [Example 91, N-[2-(Dimethylamino)ethyl]-N-methyl-10-[(2′-methyl[1,1′-biphenyl]-4-yl)carbonyl]-10,11-dihydro-5H-pyrrolo[2,1-c][1,4]benzodiazepine-3-carboxamide]	90
COc1cc(C(=O)N2Cc3ccc(C(=O)N(C)CCN(C)C)n3Cc3ccccc32)ccc1-c1ccccc1C [Example 92, N-[2-(Dimethylamino)ethyl]-10-[(2-methoxy-2′-methyl[1,1′-biphenyl]-4-yl)carbonyl]-N-methyl-10,11-dihydro-5H-pyrrolo[2,1-c][1,4]benzodiazepine-3-carboxamide]	78
COc1cc(C(=O)N2Cc3ccc(C(=O)N(C)CCN(C)C)n3Cc3ccccc32)ccc1-c1cccc2ccccc12 [Example 93, N-[2-(Dimethylamino)ethyl]-10-[3-methoxy-4-(1-naphthyl)benzoyl]-N-methyl-10,11-dihydro-5H-pyrrolo[2,1-c][1,4]benzodiazepine-3-carboxamide]	29

Same assay, conditions: CHO cell membranes, [3H]Manning ligand, values in parentheses

SMILES	IC50 [nM]
Cc1cc(C(=O)N2Cc3ccc(C(=O)N4CCN(C)CC4)n3Cc3ccccc32)ccc1-c1ccccc1C(F)(F)F [Example 2, (4-Methyl-piperazin-1-yl)-[10-(2-methyl-2′-trifluoromethyl-[1,1′-biphenyl]-4-yl)-carbonyl]-10,11-dihydro-5H-pyrrolo[2,1-c][1,4]benzodiazepin-3-yl-methanone]	2720
Cc1cc(C(=O)N2Cc3ccc(C(=O)N4CCNCC4)n3Cc3ccccc32)ccc1-c1ccccc1C(F)(F)F [Example 7, 10,11-Dihydro-10-[[2-methyl-2′-trifluoromethyl-[1,1′-biphenyl]-4-yl]carbonyl]-3-(1-piperazinylcarbonyl)-5H-pyrrolo[2,1-c][1,4]benzodiazepine hydrochloride salt]	2480
Cc1cc(C(=O)N2Cc3ccc(C(=O)NC(=N)N)n3Cc3ccccc32)ccc1-c1ccccc1C(F)(F)F [Example 8, N-[(10-{[2-methyl-2′-(trifluoromethyl)[1,1′-biphenyl]-4-yl]carbonyl}-10,11-dihydro-5H-pyrrolo[2,1-c][1,4]benzodiazepin-3-yl)carbonyl]guanidine]	1370
COc1cc(-c2ccccc2C)ccc1C(=O)N1Cc2ccc(C(=O)N(C)CCCN(C)C)n2Cc2ccccc21 [Example 11, N-Methyl-N-[3-(dimethylamino)propyl]-10-[(3-methoxy-2′-methyl[1,1′-biphenyl]-4-yl)carbonyl]-10,11-dihydro-5H-pyrrolo[2,1-c][1,4]benzodiazepine-3-carboxamide]	70.4
COc1cc(-c2ccccc2F)c(Cl)cc1C(=O)N1Cc2cccn2Cc2ccccc21 [Example 18B, 10-{[6-Chloro-3-methoxy-2′-fluoro-[1,1′-biphenyl]-4-yl]carbonyl}-10,11-dihydro-5H-pyrrolo[2,1-c][1,4]benzodiazepine]	386
COc1cc(-c2ccccc2C(F)(F)F)c(OC)cc1C(=O)N1Cc2cccn2Cc2ccccc21 [Example 32, 10-{[3,6-Dimethoxy-2′-trifluoromethyl-[1,1′-biphenyl]-4-yl]carbonyl}-10,11-dihydro-5H-pyrrolo[2,1-c][1,4]benzodiazepine]	> 3000
COc1cc(-c2ccccc2Cl)c(Cl)cc1C(=O)N1Cc2ccc(C(=O)N(C)C3CCN(C)CC3)n2Cc2ccccc21 [Example 43, 10-[(2′-Chloro-6-chloro-3-methoxy-[1,1′-biphenyl]-4-yl)carbonyl]-N-methyl-N-(1-methylpiperidin-4-yl)-10,11-dihydro-5H-pyrrolo[2,1-c][1,4]benzodiazepine-3-carboxamide]	312
COc1cc(-c2ccccc2C)c(Cl)cc1C(=O)N1Cc2ccc(C(=O)N3CCN(C)CC3)n2Cc2ccccc21 [Example 47, {10-[(6-Chloro-3-methoxy-2′-methyl[1,1′-biphenyl]-4-yl)carbonyl]-10,11-dihydro-5H-pyrrolo[2,1-c][1,4]benzodiazepin-3-yl}(4-methyl-1-piperazinyl)methanone]	1000
COc1ccccc1-c1ccc(C(=O)N2Cc3ccc(C(=O)N4CCN(C)CC4)n3Cc3ccccc32)cc1 [Example 48, {10-[(2′-Methoxy[1,1′-biphenyl]-4-yl)carbonyl]-10,11-dihydro-5H-pyrrolo[2,1-c][1,4]benzodiazepin-3-yl}(4-methyl-1-piperazinyl)methanone]	484
Cc1cc(C(=O)N2Cc3ccc(C(=O)N4CCCN(C)CC4)n3Cc3ccccc32)ccc1-c1ccccc1C(F)(F)F [Example 59, (4-Methyl-1,4-diazepan-1-yl)(10-{[2-methyl-2′-(trifluoromethyl)[1,1′-biphenyl]-4-yl]carbonyl}-10,11-dihydro-5H-pyrrolo[2,1-c][1,4]benzodiazepin-3-yl)methanone]	1890
COc1cc(-c2ccccc2C)c(Cl)cc1C(=O)N1Cc2ccc(C(=O)N3CCCN(C)CC3)n2Cc2ccccc21 [Example 60, {10-[(6-Chloro-3-methoxy-2′-methyl[1,1′-biphenyl]-4-yl)carbonyl]-10,11-dihydro-5H-pyrrolo[2,1-c][1,4]benzodiazepin-3-yl}(4-methyl-1,4-diazepan-1-yl)methanone]	681
COc1ccccc1-c1ccc(C(=O)N2Cc3ccc(C(=O)N4CCCN(C)CC4)n3Cc3ccccc32)cc1 [Example 61, {10-[(2′-Methoxy[1,1′-biphenyl]-4-yl)carbonyl]-10,11-dihydro-5H-pyrrolo[2,1-c][1,4]benzodiazepin-3-yl}(4-methyl-1,4-diazepan-1-yl)methanone]	316
Cc1cc(C(=O)N2Cc3ccc(C(=O)N(C)CCN(C)C)n3Cc3ccccc32)ccc1-c1ccccc1C(F)(F)F [Example 85, N-[2-(Dimethylamino)ethyl]-N-methyl-10-{[2-methyl-2′-(trifluoromethyl)[1,1′-biphenyl]-4-yl]carbonyl}-10,11-dihydro-5H-pyrrolo[2,1-c][1,4]benzodiazepine-3-carboxamide]	788
COc1cc(-c2ccccc2C)c(Cl)cc1C(=O)N1Cc2ccc(C(=O)N(C)CCN(C)C)n2Cc2ccccc21 [Example 86, 10-[(6-Chloro-3-methoxy-2′-methyl[1,1′-biphenyl]-4-yl)carbonyl]-N-[2-(dimethylamino)ethyl]-N-methyl-10,11-dihydro-5H-pyrrolo[2,1-c][1,4]benzodiazepine-3-carboxamide]	172
COc1cccc(-c2cc(OC)c(C(=O)N3Cc4ccc(C(=O)N(C)CCN(C)C)n4Cc4ccccc43)cc2Cl)c1 [Example 87, 10-[(6-Chloro-3,3′-dimethoxy[1,1′-biphenyl]-4-yl)carbonyl]-N-[2-(dimethylamino)ethyl]-N-methyl-10,11-dihydro-5H-pyrrolo[2,1-c][1,4]benzodiazepine-3-carboxamide]	349
